Measurements reported in patent US6479435B1, “Diaryl ethers and processes for their preparation and herbicidal and desiccant compositions containing them” (ISK Americas Incorporated, priority 1997, dated 2002).

Key:
Type in all cases: in vivo
[1] = test system: Johnsongrass (Sorghum halepense, SORHA); assay: Pre-emerge greenhouse herbicide test, phytotoxicity rating; conditions: 14 days after application, rating scale 0-100
How it was run: (§1)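 Visual 0–100 injury rating (100 = all plants dead) taken 14 days after treatment. Rates of 125–1000 g ai/ha in acetone, 187 l/ha, were sprayed onto soil one day post-sowing; pots were surface-watered to incorporate, then bottom-watered.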

[2] = test system: barnyardgrass (Echinochloa crusgalli, ECHCG); assay: as above; conditions: 14 days after application, rating scale 0-100
How it was run: as §1

[3] = test system: common ragweed (Ambrosia artemisiifolia L., AMBEL); assay: as above; conditions: 14 days after application, rating scale 0-100
How it was run: as §1

[4] = test system: green foxtail (Setaria viridis, SETVI); assay: as above; conditions: 14 days after application, rating scale 0-100
How it was run: as §1

[5] = test system: ivyleaf morningglory (Ipomoea hederacea, IPOHE); assay: as above; conditions: 14 days after application, rating scale 0-100
How it was run: as §1

[6] = test system: lambsquarters (Chenopodium album, CHEAL); assay: as above; conditions: 14 days after application, rating scale 0-100
How it was run: as §1

[7] = test system: large crabgrass (Digitaria sanguinalis, DIGSA); assay: as above; conditions: 14 days after application, rating scale 0-100
How it was run: as §1

[8] = test system: redroot pigweed (Amaranthus retroflexus, AMARE); assay: as above; conditions: 14 days after application, rating scale 0-100
How it was run: as §1

[9] = test system: sicklepod (Cassia obtusifolia, CASOB); assay: as above; conditions: 14 days after application, rating scale 0-100
How it was run: as §1

[10] = test system: velvetleaf (Abutilon theophrasti, ABUTH); assay: as above; conditions: 14 days after application, rating scale 0-100
How it was run: as §1

[11] = test system: field corn (Zea mays L., var. Dekalb 535, CORN); assay: Pre-emerge greenhouse test, crop damage rating; conditions: 14 days after application, rating scale 0-100
How it was run: as §1

[12] = test system: upland rice (Oryza sp., var.Tebonnet, RICE); assay: Pre-emerge greenhouse test, crop damage rating; conditions: 14 days after application, rating scale 0-100
How it was run: as §1

[13] = test system: soybean (Glycine max L., var. Pella 86, SOY); assay: Pre-emerge greenhouse test, crop damage rating; conditions: 14 days after application, rating scale 0-100
How it was run: as §1

[14] = test system: common ragweed (Ambrosia artemisiifolia L., AMBEL); assay: Post-emerge greenhouse herbicide test, phytotoxicity rating; conditions: 14 days after application
How it was run: (§2)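 Scores use a 0 (no damage) to 100 (complete kill) scale, taken 14 days after a foliar spray. Acetone solutions with 0.25% v/v non-ionic surfactant were applied by track sprayer at 187 l/ha and 63-1000 g ai/ha to bottom-watered 2-3 leaf plants.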

[15] = test system: Johnsongrass (Sorghum halepense, SORHA); assay: as above; conditions: 14 days after application
How it was run: as §2

[16] = test system: barnyardgrass (Echinochloa crusgalli, ECHCG); assay: as above; conditions: 14 days after application
How it was run: as §2

[17] = test system: green foxtail (Setaria viridis, SETVI); assay: as above; conditions: 14 days after application
How it was run: as §2

[18] = test system: ivyleaf morningglory (Ipomoea hederacea, IPOHE); assay: as above; conditions: 14 days after application
How it was run: as §2

[19] = test system: lambsquarters (Chenopodium album, CHEAL); assay: as above; conditions: 14 days after application
How it was run: as §2

[20] = test system: large crabgrass (Digitaria sanguinalis, DIGSA); assay: as above; conditions: 14 days after application
How it was run: as §2

[21] = test system: redroot pigweed (Amaranthus retroflexus, AMARE); assay: as above; conditions: 14 days after application
How it was run: as §2

[22] = test system: sicklepod (Cassia obtusifolia, CASOB); assay: as above; conditions: 14 days after application
How it was run: as §2

[23] = test system: velvetleaf (Abutilon theophrasti, ABUTH); assay: as above; conditions: 14 days after application
How it was run: as §2

[24] = test system: field corn (Zea mays L., var. Dekalb 535, CORN); assay: Post-emerge greenhouse test, crop damage rating; conditions: 14 days after application
How it was run: as §2

[25] = test system: upland rice (Oryza sp., var.Tebonnet, RICE); assay: Post-emerge greenhouse test, crop damage rating; conditions: 14 days after application
How it was run: as §2

[26] = test system: soybean (Glycine max L., var. Pella 86, SOY); assay: Post-emerge greenhouse test, crop damage rating; conditions: 14 days after application
How it was run: as §2

## Cn1nc(-c2cc(Oc3ncccn3)c(Cl)cc2F)c(Cl)c1C(F)(F)F [Compound 1-7]
[1]; 125 g ai/ha
  phytotoxicity rating SORHA: 100
[1]; 500 g ai/ha
  phytotoxicity rating SORHA: 100
[2]; 125 g ai/ha
  phytotoxicity rating ECHCG: 100
[2]; 500 g ai/ha
  phytotoxicity rating ECHCG: 100
[3]; 125 g ai/ha
  phytotoxicity rating AMBEL: 100
[3]; 500 g ai/ha
  phytotoxicity rating AMBEL: 100
[4]; 125 g ai/ha
  phytotoxicity rating SETVI: 100
[4]; 500 g ai/ha
  phytotoxicity rating SETVI: 100
[5]; 125 g ai/ha
  phytotoxicity rating IPOHE: 40
[5]; 500 g ai/ha
  phytotoxicity rating IPOHE: 70
[6]; 125 g ai/ha
  phytotoxicity rating CHEAL: 100
[6]; 500 g ai/ha
  phytotoxicity rating CHEAL: 100
[7]; 125 g ai/ha
  phytotoxicity rating DIGSA: 100
[7]; 500 g ai/ha
  phytotoxicity rating DIGSA: 100
[8]; 125 g ai/ha
  phytotoxicity rating AMARE: 100
[8]; 500 g ai/ha
  phytotoxicity rating AMARE: 100
[9]; 125 g ai/ha
  phytotoxicity rating CASOB: 95
[9]; 500 g ai/ha
  phytotoxicity rating CASOB: 90
[10]; 125 g ai/ha
  phytotoxicity rating ABUTH: 90
[10]; 500 g ai/ha
  phytotoxicity rating ABUTH: 99
[11]; 125 g ai/ha
  crop damage rating CORN: 40
[11]; 500 g ai/ha
  crop damage rating CORN: 70
[12]; 125 g ai/ha
  crop damage rating RICE: 70
[12]; 500 g ai/ha
  crop damage rating RICE: 90
[13]; 125 g ai/ha
  crop damage rating SOY: 0
[13]; 500 g ai/ha
  crop damage rating SOY: 0
[14]; 63 g al/ha
  AMBEL phytotoxicity rating (0-100): 95
[14]; 500 g al/ha
  AMBEL phytotoxicity rating (0-100): 100
[15]; 63 g al/ha
  SORHA phytotoxicity rating (0-100): 90
[15]; 500 g al/ha
  SORHA phytotoxicity rating (0-100): 100
[16]; 63 g al/ha
  ECHCG phytotoxicity rating (0-100): 100
[16]; 500 g al/ha
  ECHCG phytotoxicity rating (0-100): 100
[17]; 63 g al/ha
  SETVI phytotoxicity rating (0-100): 100
[17]; 500 g al/ha
  SETVI phytotoxicity rating (0-100): 100
[18]; 63 g al/ha
  IPOHE phytotoxicity rating (0-100): 100
[18]; 500 g al/ha
  IPOHE phytotoxicity rating (0-100): 100
[19]; 63 g al/ha
  CHEAL phytotoxicity rating (0-100): 100
[19]; 500 g al/ha
  CHEAL phytotoxicity rating (0-100): 100
[20]; 63 g al/ha
  DIGSA phytotoxicity rating (0-100): 90
[20]; 500 g al/ha
  DIGSA phytotoxicity rating (0-100): 100
[21]; 63 g al/ha
  AMARE phytotoxicity rating (0-100): 100
[21]; 500 g al/ha
  AMARE phytotoxicity rating (0-100): 100
[22]; 500 g al/ha
  CASOB phytotoxicity rating (0-100): 100
[23]; 63 g al/ha
  ABUTH phytotoxicity rating (0-100): 100
[23]; 500 g al/ha
  ABUTH phytotoxicity rating (0-100): 100
[24]; 63 g al/ha
  CORN crop damage rating (0-100): 90
[24]; 500 g al/ha
  CORN crop damage rating (0-100): 70
[25]; 63 g al/ha
  RICE crop damage rating (0-100): 100
[25]; 500 g al/ha
  RICE crop damage rating (0-100): 80
[26]; 63 g al/ha
  SOY crop damage rating (0-100): 100
[26]; 500 g al/ha
  SOY crop damage rating (0-100): 100

## Cn1c(C(F)(F)F)nc(-c2cc(Oc3ncccc3[N+](=O)[O-])c(Cl)cc2F)c1Cl [Compound 2-1]
[1]; 125 g ai/ha
  phytotoxicity rating SORHA: 0
[1]; 500 g ai/ha
  phytotoxicity rating SORHA: 30
[2]; 125 g ai/ha
  phytotoxicity rating ECHCG: 0
[2]; 500 g ai/ha
  phytotoxicity rating ECHCG: 20
[3]; 125 g ai/ha
  phytotoxicity rating AMBEL: 0
[3]; 500 g ai/ha
  phytotoxicity rating AMBEL: 50
[4]; 125 g ai/ha
  phytotoxicity rating SETVI: 90
[4]; 500 g ai/ha
  phytotoxicity rating SETVI: 99
[5]; 125 g ai/ha
  phytotoxicity rating IPOHE: 10
[5]; 500 g ai/ha
  phytotoxicity rating IPOHE: 100
[6]; 125 g ai/ha
  phytotoxicity rating CHEAL: 60
[6]; 500 g ai/ha
  phytotoxicity rating CHEAL: 100
[7]; 125 g ai/ha
  phytotoxicity rating DIGSA: 0
[7]; 500 g ai/ha
  phytotoxicity rating DIGSA: 70
[8]; 125 g ai/ha
  phytotoxicity rating AMARE: 100
[8]; 500 g ai/ha
  phytotoxicity rating AMARE: 100
[9]; 125 g ai/ha
  phytotoxicity rating CASOB: 0
[9]; 500 g ai/ha
  phytotoxicity rating CASOB: 30
[10]; 125 g ai/ha
  phytotoxicity rating ABUTH: 0
[10]; 500 g ai/ha
  phytotoxicity rating ABUTH: 50
[11]; 125 g ai/ha
  crop damage rating CORN: 0
[11]; 500 g ai/ha
  crop damage rating CORN: 0
[12]; 125 g ai/ha
  crop damage rating RICE: 0
[12]; 500 g ai/ha
  crop damage rating RICE: 0
[13]; 125 g ai/ha
  crop damage rating SOY: 0
[13]; 500 g ai/ha
  crop damage rating SOY: 70
[14]; 63 g al/ha
  AMBEL phytotoxicity rating (0-100): 10
[14]; 500 g al/ha
  AMBEL phytotoxicity rating (0-100): 40
[15]; 63 g al/ha
  SORHA phytotoxicity rating (0-100): 0
[15]; 500 g al/ha
  SORHA phytotoxicity rating (0-100): 10
[16]; 63 g al/ha
  ECHCG phytotoxicity rating (0-100): 0
[16]; 500 g al/ha
  ECHCG phytotoxicity rating (0-100): 30
[17]; 63 g al/ha
  SETVI phytotoxicity rating (0-100): 30
[17]; 500 g al/ha
  SETVI phytotoxicity rating (0-100): 65
[18]; 63 g al/ha
  IPOHE phytotoxicity rating (0-100): 60
[18]; 500 g al/ha
  IPOHE phytotoxicity rating (0-100): 65
[19]; 63 g al/ha
  CHEAL phytotoxicity rating (0-100): 80
[19]; 500 g al/ha
  CHEAL phytotoxicity rating (0-100): 99
[20]; 63 g al/ha
  DIGSA phytotoxicity rating (0-100): 0
[20]; 500 g al/ha
  DIGSA phytotoxicity rating (0-100): 20
[21]; 63 g al/ha
  AMARE phytotoxicity rating (0-100): 90
[21]; 500 g al/ha
  AMARE phytotoxicity rating (0-100): 100
[22]; 63 g al/ha
  CASOB phytotoxicity rating (0-100): 0
[22]; 500 g al/ha
  CASOB phytotoxicity rating (0-100): 30
[23]; 63 g al/ha
  ABUTH phytotoxicity rating (0-100): 40
[23]; 500 g al/ha
  ABUTH phytotoxicity rating (0-100): 85
[24]; 63 g al/ha
  CORN crop damage rating (0-100): 15
[24]; 500 g al/ha
  CORN crop damage rating (0-100): 20
[25]; 63 g al/ha
  RICE crop damage rating (0-100): 0
[25]; 500 g al/ha
  RICE crop damage rating (0-100): 20
[26]; 63 g al/ha
  SOY crop damage rating (0-100): 50
[26]; 500 g al/ha
  SOY crop damage rating (0-100): 75
